Measurements reported in patent US12543738B2 (Bayer Aktiengesellschaft, priority 2020, dated 2026).

Experiments:
[1] = system: Colletotrichum lindemuthianum; assay: In vivo preventive test on Colletotrichum lindemuthianum (leaf spot on bean); conditions: 168 h, 500 ppm of active ingredient, preventive spray on bean, evaluated 7 days after inoculation, read-out: efficacy
Outline: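 Young bean plants were sprayed with compound dissolved in DMSO/acetone/Tween 80 and diluted in water; controls received the solvent mixture alone. Leaves were spray-inoculated with C. lindemuthianum spore suspension 24 h after treatment (preventive).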

Septoria tritici = Septoria tritici in vitro cell test; type: cell-based; conditions: Zymoseptoria tritici, 168 h; 20 ppm of active ingredient; liquid culture, 7 days incubation; read-out: efficacy (inhibition of fungal growth)
Experimental: • Solvent: DMSO • Culture medium: 1 g KH2PO4 (VWR), 1 g K2HPO4 (VWR), 0.5 g Urea (VWR), 3 g KNO3 (Prolabo), 10 g saccharose (VWR), 0.5 g MgSO4, 7H2O (Sigma), 0.07 g CaCl2, 2H2O (Prolabo), 0.2 mg MnSO4, H2O (Sigma), 0.6 mg CuSO4, 5H2O (Sigma), 7.9 mg ZnSO4, 7H2O (Sigma), 0.1 mg H3BO3 (Merck), 0.14 mg NaMoO4, 2H2O (Sigma), 2 mg thiamine (Sigma), 0.1 mg biotine (VWR), 4 mg FeSO4, 7H2O (Sigma), QSP 1 liter • Inoculum: spore suspension Fungicides were solubilized in DMSO and the solution used to prepare the required range of concentrations. […] A spore suspension of S. tritici was prepared and diluted to the desired spore density. Fungicides were evaluated for their ability to inhibit spore germination and mycelium growth in liquid culture assay. The compounds were added in the desired concentration to the culture medium with spores. […] Inhibition of fungal growth was determined by comparing the absorbance values in wells containing the fungicides with the absorbance in control wells without fungicides.

[2] = system: Colletotrichum lindemuthianum; assay: Colletotrichum lindemuthianum in vitro cell test; type: cell-based; conditions: 144 h, 20 ppm of active ingredient, liquid culture, 6 days incubation, read-out: efficacy (inhibition of fungal growth)
Experimental: • Solvent: DMSO • Culture medium: 14.6 g anhydrous D-glucose (VWR), 7.1 g Mycological Peptone (Oxoid), 1.4 g granulated Yeast Extract (Merck), QSP 1 liter • Inoculum: spores suspension Fungicides were solubilized in DMSO and the solution used to prepare the required range of concentrations. […] A spore suspension of C. lindemuthianum was prepared and diluted to the desired spore density. Fungicides were evaluated for their ability to inhibit spores germination and mycelium growth in liquid culture assay. The compounds were added in the desired concentration to the culture medium with spores. After 6 days incubation, fungi-toxicity of compounds was determined by spectrometric measurement of mycelium growth. Inhibition of fungal growth was determined by comparing the absorbance values in wells containing the fungicides with the absorbance in control wells without fungicides.

Pyricularia Oryzae = assay: microbe, parasite or virus in culture; type: cell-based; conditions: 120 h, read-out: efficacy (inhibition of fungal growth)
Alternaria brassicae = assay: In vivo preventive test on Alternaria brassicae (leaf spot on radish or cabbage); conditions: 144 h, 500 ppm of active ingredient, preventive spray on radish or cabbage, evaluated 6 days after inoculation, read-out: efficacy
Outline: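 Young radish or cabbage plants sprayed with compound dissolved in DMSO/acetone/Tween 80 and diluted in water; controls received solvent only. Leaves inoculated 24 h later by spraying an aqueous Alternaria brassicae spore suspension.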

[3] = Measurement of LogP values by HPLC on reversed phase columns (EEC directive 79/831 Annex V.A8); type: physicochemical; conditions: method [a]: LC-UV, acidic range, 0.1% formic acid in water and acetonitrile; compounds of formula (I-1), Table 1
Experimental: Calibration was done with straight-chain alkan2-ones (with 3 to 16 carbon atoms) with known LogP values (measurement of LogP values using retention times with linear interpolation between successive alkanones). Lambda-max-values were determined using UV-spectra from 200 nm to 400 nm and the peak values of the chromatographic signals

Fusarium culmorum = Fusarium culmorum in vitro cell test; type: cell-based; conditions: 96 h, 20 ppm of active ingredient, liquid culture, 4 days incubation, read-out: efficacy (inhibition of fungal growth)
Experimental: • Solvent: DMSO • Culture medium: 14.6 g anhydrous D-glucose (VWR), 7.1 g Mycological Peptone (Oxoid), 1.4 g granulated Yeast Extract (Merck), QSP 1 liter • Inoculum: spore suspension • Fungicides were solubilized in DMSO and the solution used to prepare the required range of concentrations. The final concentration of DMSO used in the assay was ≤1%.
A spore suspension of F. culmorum was prepared and diluted to the desired spore density.
Fungicides were evaluated for their ability to inhibit spore germination and mycelium growth in liquid culture assay. The compounds were added in the desired concentration to the culture medium with spores. After 4 days incubation, fungi-toxicity of compounds was determined by spectrometric measurement of mycelium growth. Inhibition of fungal growth was determined by comparing the absorbance values in wells containing the fungicides with the absorbance in control wells without fungicides.

Pyrenophora teres = assay: In vivo preventive test on Pyrenophora teres (net blotch on barley); conditions: 240 h, 500 ppm of active ingredient, preventive spray on barley, evaluated 10 days after inoculation, read-out: efficacy
Outline: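 Young barley plants sprayed preventively with compound dissolved in DMSO/acetone/Tween 80 and diluted in water; controls received solvent mixture only. Leaves inoculated 24 h later by spraying an aqueous P. teres spore suspension.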

Sphaerotheca fuliginea = assay: In vivo preventive test on Sphaerotheca fuliginea (powdery mildew on cucurbits); conditions: Podosphaera fuliginea, 192 h; 500 ppm of active ingredient; preventive spray on gherkin; evaluated 8 days after inoculation; read-out: efficacy
Outline: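 Preventive spray on young gherkin plants with compound in DMSO/acetone/Tween 80 diluted in water; controls received solvent only. Leaves inoculated 24 h later by spraying an aqueous S. fuliginea spore suspension.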

Alternaria alternata = Alternaria alternata in vitro cell test; type: cell-based; conditions: 120 h, 20 ppm of active ingredient, liquid culture, 5 days incubation, read-out: efficacy (inhibition of fungal growth)
Outline: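 A. alternata spores in glucose–peptone–yeast extract liquid medium were exposed to DMSO-solubilized compounds. Mycelial growth was measured spectrophotometrically after 5 days. Inhibition was calculated from absorbance relative to compound-free controls.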

Botrytis cinerea = assay: In vivo preventive test on Botrytis cinerea (grey mould); conditions: 500 ppm of active ingredient, preventive spray on gherkin or cabbage, evaluated 4 to 5 days after inoculation, read-out: efficacy
Outline: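 Young plants of gherkin or cabbage were sprayed with water-diluted compound formulated in DMSO/acetone/Tween 80, with solvent-only controls. Inoculation followed 24 h later by spraying an aqueous spore suspension of Botrytis cinerea onto leaves.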

SMILES	pest or weed control at 500 ppm [1] [%]	inhibition at 20 ppm (Septoria tritici) [%]	inhibition at 20 ppm [2] [%]	inhibition at 20 ppm (Pyricularia Oryzae) [%]	pest or weed control at 500 ppm (Alternaria brassicae) [%]	chromatographic logP [3]	inhibition at 20 ppm (Fusarium culmorum) [%]	pest or weed control at 500 ppm (Pyrenophora teres) [%]	pest or weed control at 500 ppm (Sphaerotheca fuliginea) [%]	inhibition at 20 ppm (Alternaria alternata) [%]	pest or weed control at 500 ppm (Botrytis cinerea) [%]
Cc1cc(C)cc(CC2CON=C(c3cc(C)nnc3Oc3cccc(Cl)c3F)N2)c1 (racemic) [Compound I-010, (5RS)-3-[3-(3-chloro-2-fluorophenoxy)-6-methylpyridazin-4-yl]-5-(3,5-dimethylbenzyl)-5,6-dihydro-4H-1,2,4-oxadiazine]	90 to 100	90 to 100	90 to 100	90 to 100	90 to 100	4.01	90 to 100	90 to 100	90 to 100	90 to 100	90 to 100
Cc1ccc(C)c(CC2CON=C(c3cc(C)nnc3Oc3cccc(Cl)c3)N2)c1 (racemic) [Compound I-011, (5RS)-3-[3-(3-chlorophenoxy)-6-methylpyridazin-4-yl]-5-(2,5-dimethylbenzyl)-5,6-dihydro-4H-1,2,4-oxadiazine]	90 to 100	90 to 100	90 to 100	90 to 100	90 to 100	3.7	70 to 79	90 to 100	90 to 100	90 to 100	90 to 100
Cc1ccc(C)c(CC2CON=C(c3cc(C)nnc3Oc3cccc(Cl)c3F)N2)c1 (racemic) [Compound I-012, (5RS)-3-[3-(3-chloro-2-fluorophenoxy)-6-methylpyridazin-4-yl]-5-(2,5-dimethylbenzyl)-5,6-dihydro-4H-1,2,4-oxadiazine]	90 to 100	90 to 100	90 to 100	90 to 100	90 to 100	3.8	90 to 100	90 to 100	90 to 100	90 to 100	90 to 100
CCc1cccc(Oc2nnc(C)cc2C2=NOCC(Cc3ccc(C)cc3C)N2)c1F (racemic) [Compound I-014, (5RS)-5-(2,4-dimethylbenzyl)-3-[3-(3-ethyl-2-fluorophenoxy)-6-methylpyridazin-4-yl]-5,6-dihydro-4H-1,2,4-oxadiazine]	90 to 100	90 to 100	90 to 100	90 to 100	90 to 100	4.12	90 to 100	90 to 100	90 to 100	90 to 100	90 to 100
C[C@@H](F)c1cc(C2=NOC[C@@H](Cc3ccc(Cl)cc3Cl)N2)c(Oc2cccc(C3CC3)c2F)nn1 (racemic) [Compound I-018, (5RS)-3-{3-(3-cyclopropyl-2-fluorophenoxy)-6-[(1RS)-1-fluoroethyl]pyridazin-4-yl}-5-(2,4-dichlorobenzyl)-5,6-dihydro-4H-1,2,4-oxadiazine]	90 to 100	90 to 100	90 to 100	90 to 100	90 to 100	4.74	90 to 100	90 to 100	90 to 100	90 to 100	90 to 100
O=CN1C(c2cc(Cl)nnc2Oc2cccc(C3CC3)c2F)=NOCC1Cc1ccc(Cl)cc1Cl (racemic) [Compound I-025, (5RS)-3-[6-chloro-3-(3-cyclopropyl-2-fluorophenoxy)pyridazin-4-yl]-5-(2,4-dichlorobenzyl)-5,6-dihydro-4H-1,2,4-oxadiazine-4-carbaldehyde]	90 to 100	90 to 100	90 to 100	90 to 100	90 to 100	4.93	90 to 100	90 to 100	90 to 100	90 to 100	90 to 100
